Article PMC4256409, “Role of Phenylalanine and Valine^10 Residues in the Antimicrobial Activity and Cytotoxicity of Piscidin-1” (PLoS ONE, 2014)
Where no end group is shown, it is not given here.

test system: E. coli KCTC1682; type: cell-based, Escherichia coli; details: KCTC1682, 16 h

Row | Sequence | MIC [µM]
1 | FKHHIFRGIKHVGKTIHRLVTG [Pis-F2K/V10K] | 1.0
2 | FFHHIKRGIKHVGKTIHRLVTG [Pis-F6K/V10K] | 2.0

test system: E. coli KCTC2593; type: cell-based, Escherichia coli; details: KCTC2593, 16 h

Row | Sequence | MIC [µM]
3 | FKHHIFRGIKHVGKTIHRLVTG [Pis-F2K/V10K] | 4.0
4 | FFHHIKRGIKHVGKTIHRLVTG [Pis-F6K/V10K] | 4.0

test system: E.coli KCTC2571; type: cell-based, Escherichia coli; details: KCTC2571, 16 h

Row | Sequence | MIC [µM]
5 | FKHHIFRGIKHVGKTIHRLVTG [Pis-F2K/V10K] | 4.0
6 | FFHHIKRGIKHVGKTIHRLVTG [Pis-F6K/V10K] | 4.0

test system: P. aeruginosa KCTC1637; type: cell-based, Pseudomonas aeruginosa; details: KCTC1637, 16 h

Row | Sequence | MIC [µM]
7 | FKHHIFRGIKHVGKTIHRLVTG [Pis-F2K/V10K] | 1.0
8 | FFHHIKRGIKHVGKTIHRLVTG [Pis-F6K/V10K] | 4.0

test system: P. aeruginosa KCTC2004; type: cell-based, Pseudomonas aeruginosa; details: KCTC2004, 16 h

Row | Sequence | MIC [µM]
9 | FKHHIFRGIKHVGKTIHRLVTG [Pis-F2K/V10K] | 8.0
10 | FFHHIKRGIKHVGKTIHRLVTG [Pis-F6K/V10K] | 8.0

test system: P. aeruginosa KCTC2513; type: cell-based, Pseudomonas aeruginosa; details: KCTC2513, 16 h

Row | Sequence | MIC [µM]
11 | FKHHIFRGIKHVGKTIHRLVTG [Pis-F2K/V10K] | 8.0
12 | FFHHIKRGIKHVGKTIHRLVTG [Pis-F6K/V10K] | 8.0

test system: S. typhimurium KCTC1926; type: cell-based, Salmonella typhimurium; details: KCTC1926, 16 h

Row | Sequence | MIC [µM]
13 | FKHHIFRGIKHVGKTIHRLVTG [Pis-F2K/V10K] | 2.0
14 | FFHHIKRGIKHVGKTIHRLVTG [Pis-F6K/V10K] | 8.0

test system: B. subtilis KCTC3068; type: cell-based, Bacillus subtilis; details: KCTC3068, 16 h

Row | Sequence | MIC [µM]
15 | FKHHIFRGIKHVGKTIHRLVTG [Pis-F2K/V10K] | 2.0
16 | FFHHIKRGIKHVGKTIHRLVTG [Pis-F6K/V10K] | 4.0

test system: B. subtilis KCTC1021; type: cell-based, Bacillus subtilis; details: KCTC1021, 16 h

Row | Sequence | MIC [µM]
17 | FKHHIFRGIKHVGKTIHRLVTG [Pis-F2K/V10K] | 8.0
18 | FFHHIKRGIKHVGKTIHRLVTG [Pis-F6K/V10K] | 8.0

test system: B. subtilis KCTC1022; type: cell-based, Bacillus subtilis; details: KCTC1022, 16 h

Row | Sequence | MIC [µM]
19 | FKHHIFRGIKHVGKTIHRLVTG [Pis-F2K/V10K] | 4.0
20 | FFHHIKRGIKHVGKTIHRLVTG [Pis-F6K/V10K] | 4.0

test system: S. epidermidis KCTC1917; type: cell-based, Staphylococcus epidermidis; details: KCTC1917, 16 h

Row | Sequence | MIC [µM]
21 | FKHHIFRGIKHVGKTIHRLVTG [Pis-F2K/V10K] | 4.0
22 | FFHHIKRGIKHVGKTIHRLVTG [Pis-F6K/V10K] | 4.0

test system: S. aureus KCTC1621; type: cell-based, Staphylococcus aureus; details: KCTC1621, 16 h

Row | Sequence | MIC [µM]
23 | FKHHIFRGIKHVGKTIHRLVTG [Pis-F2K/V10K] | 2.0
24 | FFHHIKRGIKHVGKTIHRLVTG [Pis-F6K/V10K] | 4.0

test system: S. aureus KCTC1916; type: cell-based, Staphylococcus aureus; details: KCTC1916, 16 h

Row | Sequence | MIC [µM]
25 | FKHHIFRGIKHVGKTIHRLVTG [Pis-F2K/V10K] | 4.0
26 | FFHHIKRGIKHVGKTIHRLVTG [Pis-F6K/V10K] | 4.0

test system: S. aureus KCTC3881; type: cell-based, Staphylococcus aureus; details: KCTC3881, 16 h

Row | Sequence | MIC [µM]
27 | FKHHIFRGIKHVGKTIHRLVTG [Pis-F2K/V10K] | 4.0
28 | FFHHIKRGIKHVGKTIHRLVTG [Pis-F6K/V10K] | 4.0

test system: MRSA CCARM3089; type: cell-based, Methicillin-resistant S. aureus; details: CCARM3089, 16 h

Row | Sequence | MIC [µM]
29 | FKHHIFRGIKHVGKTIHRLVTG [Pis-F2K/V10K] | 8.0
30 | FFHHIKRGIKHVGKTIHRLVTG [Pis-F6K/V10K] | 8.0

test system: MRSA CCARM 3090; type: cell-based, Methicillin-resistant S. aureus; details: CCARM 3090, 16 h

Row | Sequence | MIC [µM]
31 | FKHHIFRGIKHVGKTIHRLVTG [Pis-F2K/V10K] | 8.0
32 | FFHHIKRGIKHVGKTIHRLVTG [Pis-F6K/V10K] | 8.0

test system: MRSA CCARM 3108; type: cell-based, Methicillin-resistant S. aureus; details: CCARM 3108, 16 h

Row | Sequence | MIC [µM]
33 | FKHHIFRGIKHVGKTIHRLVTG [Pis-F2K/V10K] | 8.0
34 | FFHHIKRGIKHVGKTIHRLVTG [Pis-F6K/V10K] | 8.0

test system: MRSA CCARM 3114; type: cell-based, Methicillin-resistant S. aureus; details: CCARM 3114, 16 h

Row | Sequence | MIC [µM]
35 | FKHHIFRGIKHVGKTIHRLVTG [Pis-F2K/V10K] | 8.0
36 | FFHHIKRGIKHVGKTIHRLVTG [Pis-F6K/V10K] | 8.0

test system: MRSA CCARM 3126; type: cell-based, Methicillin-resistant S. aureus; details: CCARM 3126, 16 h

Row | Sequence | MIC [µM]
37 | FKHHIFRGIKHVGKTIHRLVTG [Pis-F2K/V10K] | 8.0
38 | FFHHIKRGIKHVGKTIHRLVTG [Pis-F6K/V10K] | 8.0

test system: MDRST CCARM 8003; type: cell-based, multidrug-resistant S. typhimurium; details: broth microdilution, 37°C, 16 h, three independent experiments in triplicate, SD 14.0%

Row | Sequence | MIC [µM]
39 | FKHHIFRGIKHVGKTIHRLVTG [Pis-F2K/V10K] | 16
40 | FFHHIKRGIKHVGKTIHRLVTG [Pis-F6K/V10K] | 16

test system: MDRST CCARM 8007; type: cell-based, multidrug-resistant S. typhimurium; details: broth microdilution, 37°C, 16 h, three independent experiments in triplicate, SD 14.0%

Row | Sequence | MIC [µM]
41 | FKHHIFRGIKHVGKTIHRLVTG [Pis-F2K/V10K] | 8.0
42 | FFHHIKRGIKHVGKTIHRLVTG [Pis-F6K/V10K] | 8.0

test system: MDRST CCARM 8009; type: cell-based, multidrug-resistant S. typhimurium; details: broth microdilution, 37°C, 16 h, three independent experiments in triplicate, SD 14.0%

Row | Sequence | MIC [µM]
43 | FKHHIFRGIKHVGKTIHRLVTG [Pis-F2K/V10K] | 8.0
44 | FFHHIKRGIKHVGKTIHRLVTG [Pis-F6K/V10K] | 8.0

test system: MDREC CCARM 1229; type: cell-based, multidrug-resistant E. coli; details: broth microdilution, 37°C, 16 h, three independent experiments in triplicate, SD 14.0%

Row | Sequence | MIC [µM]
45 | FKHHIFRGIKHVGKTIHRLVTG [Pis-F2K/V10K] | 8.0
46 | FFHHIKRGIKHVGKTIHRLVTG [Pis-F6K/V10K] | 8.0

test system: MDREC CCARM 1238; type: cell-based, multidrug-resistant E. coli; details: broth microdilution, 37°C, 16 h, three independent experiments in triplicate, SD 14.0%

Row | Sequence | MIC [µM]
47 | FKHHIFRGIKHVGKTIHRLVTG [Pis-F2K/V10K] | 8.0
48 | FFHHIKRGIKHVGKTIHRLVTG [Pis-F6K/V10K] | 8.0

test system: MDRAB CCARM 12005; type: cell-based, multidrug-resistant Acinetobacter baumanii; details: broth microdilution, 37°C, 16 h, three independent experiments in triplicate, SD 14.0%

Row | Sequence | MIC [µM]
49 | FKHHIFRGIKHVGKTIHRLVTG [Pis-F2K/V10K] | 2.0
50 | FFHHIKRGIKHVGKTIHRLVTG [Pis-F6K/V10K] | 4.0

test system: MDRAB CCARM 12035; type: cell-based, multidrug-resistant Acinetobacter baumanii; details: broth microdilution, 37°C, 16 h, three independent experiments in triplicate, SD 14.0%

Row | Sequence | MIC [µM]
51 | FKHHIFRGIKHVGKTIHRLVTG [Pis-F2K/V10K] | 2.0
52 | FFHHIKRGIKHVGKTIHRLVTG [Pis-F6K/V10K] | 4.0

test system: MDRAB CCARM 12036; type: cell-based, multidrug-resistant Acinetobacter baumanii; details: broth microdilution, 37°C, 16 h, three independent experiments in triplicate, SD 14.0%

Row | Sequence | MIC [µM]
53 | FKHHIFRGIKHVGKTIHRLVTG [Pis-F2K/V10K] | 2.0
54 | FFHHIKRGIKHVGKTIHRLVTG [Pis-F6K/V10K] | 4.0

test system: MDRAB CCARM 12037; type: cell-based, multidrug-resistant Acinetobacter baumanii; details: broth microdilution, 37°C, 16 h, three independent experiments in triplicate, SD 14.0%

Row | Sequence | MIC [µM]
55 | FKHHIFRGIKHVGKTIHRLVTG [Pis-F2K/V10K] | 2.0
56 | FFHHIKRGIKHVGKTIHRLVTG [Pis-F6K/V10K] | 4.0

test system: MDRPA CCARM 2002; type: cell-based, multidrug-resistant P. aeruginosa; details: broth microdilution, 37°C, 16 h, three independent experiments in triplicate, SD 14.0%

Row | Sequence | MIC [µM]
57 | FKHHIFRGIKHVGKTIHRLVTG [Pis-F2K/V10K] | 2.0
58 | FFHHIKRGIKHVGKTIHRLVTG [Pis-F6K/V10K] | 4.0

test system: MDRPA CCARM 2003; type: cell-based, multidrug-resistant P. aeruginosa; details: broth microdilution, 37°C, 16 h, three independent experiments in triplicate, SD 14.0%

Row | Sequence | MIC [µM]
59 | FKHHIFRGIKHVGKTIHRLVTG [Pis-F2K/V10K] | 2.0
60 | FFHHIKRGIKHVGKTIHRLVTG [Pis-F6K/V10K] | 4.0

test system: MDRPA CCARM 2095; type: cell-based, multidrug-resistant P. aeruginosa; details: broth microdilution, 37°C, 16 h, three independent experiments in triplicate, SD 14.0%

Row | Sequence | MIC [µM]
61 | FKHHIFRGIKHVGKTIHRLVTG [Pis-F2K/V10K] | 2.0
62 | FFHHIKRGIKHVGKTIHRLVTG [Pis-F6K/V10K] | 2.0

test system: MDRPA CCARM 2163; type: cell-based, multidrug-resistant P. aeruginosa; details: broth microdilution, 37°C, 16 h, three independent experiments in triplicate, SD 14.0%

Row | Sequence | MIC [µM]
63 | FKHHIFRGIKHVGKTIHRLVTG [Pis-F2K/V10K] | 2.0
64 | FFHHIKRGIKHVGKTIHRLVTG [Pis-F6K/V10K] | 2.0

test system: Standard bacterial strains; type: cell-based; details: average over the 14 standard bacterial strains of Table 2

Row | Sequence | Average MIC [µM]
65 | FKHHIFRGIKHVGKTIHRLVTG [Pis-F2K/V10K] | 4.0
66 | FFHHIKRGIKHVGKTIHRLVTG [Pis-F6K/V10K] | 5.0

test system: Drug-resistant bacterial strains; details: average over the 18 drug-resistant bacterial strains of Table 3
Text: Escherichia coli KCTC 1682, E. coli KCTC 2593, E. coli KCTC 2571, Salmonella typhimurium KCTC 1926, Pseudomonas aeruginosa KCTC 1637, P. aeruginosa KCTC 2004, P. aeruginosa KCTC 2513, Bacillus subtilis KCTC 3068, B. subtilis KCTC 1021, B. subtilis KCTC 1022, Staphylococcus epidermidis KCTC 1917, Staphylococcus aureus KCTC 1621, S. aureus KCTC 1916, and S. aureus KCTC 3881 were purchased from the Korean Collection for Type Cultures, Korea Research Institute of Bioscience & Biotechnology (Taejon, Korea). Methicillin-resistant S. aureus (MRSA) (CCARM 3089, CCARM 3090, CCARM 3108, CCARM 3114, and CCARM 3126), multidrug-resistant E. coli (MDREC) (CCARM 1229 and CCARM 1238), multidrug-resistant S. typhimurium (MDRST) (CCARM 8003, CCARM 8007, and CCARM 8009), multidrug-resistant Acinetobacter baumanii (MDRAB) (CCARM 12005, CCARM 12035, CCARM 12036, CCARM 12037), and multidrug-resistant P. aeruginosa (MDRPA) (CCARM 2002, CCARM 2003, CCARM 2095, and CCARM 2163) were obtained from the Culture Collection of Antibiotic-Resistant Microbes (CCARM) at Seoul Women’s University in Korea. The antimicrobial activities of the peptides against selected organisms, including three Gram-positive, three Gram-negative, and five antibiotic-resistant bacteria, were determined using a broth microdilution assay. Briefly, single colonies of bacteria and fungi were inoculated into Luria-Bertani (LB) medium and cultured overnight at 37°C. An aliquot of the culture was transferred to 10 mL of fresh LB and incubated for an additional 3–5 h at 37°C until it reached the mid-logarithmic phase. Two-fold serial dilutions of the peptides in 1% peptone were prepared. The serial dilutions (100 µL) were added to 100 µL of cells (2×10^6 colony-forming units (CFU)/mL) in 96-well microtiter plates and incubated at 37°C for 16 h. […] MIC values were calculated as the average of triplicate measurements from three independent assays.

Row | Sequence | Average MIC [µM]
67 | FKHHIFRGIKHVGKTIHRLVTG [Pis-F2K/V10K] | 5.8
68 | FFHHIKRGIKHVGKTIHRLVTG [Pis-F6K/V10K] | 6.4
